# Assay results reported in the supplement of paper PMC11061612.
# Tests used:
# [1] = compound: CC(=O)O[C@H]1C(=O)[C@@]2(C)[C@H]([C@H](OC(=O)c3ccccc3)[C@]3(O)C[C@H](OC(=O)[C@H](O)[C@@H](NC(=O)c4ccccc4)c4ccccc4)C(C)=C1C3(C)C)[C@]1(OC(C)=O)CO[C@@H]1C[C@@H]2O [Paclitaxel]; settings: max 3 µM
# Summary of the method: (§1)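 Viability was measured with CellTiter-Glo 2.0 luminescence after 72 hours of dosing at a final DMSO of typically 0.2%, and scaled between blank-well and DMSO-well means. Beforehand, cancer cell lines sat 24 hours at 37°C and 5% CO2 in 1536-well plates in 7.5 μl DMEM/F12 or RPMI with 10% FBS. A non-linear mixed effects model fitted two-parameter logistic curves to the dose responses. The single-agent IC50 comes from these fits.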
# [2] = compound: C[C@@H](Oc1cc(-c2cnn(C3CCNCC3)c2)cnc1N)c1c(Cl)ccc(F)c1Cl [Crizotinib]; settings: max 10 µM
# Summary of the method: as §1
# [3] = compound: CC(=O)c1c(C)c2cnc(Nc3ccc(N4CCNCC4)cn3)nc2n(C2CCCC2)c1=O [Palbociclib]; settings: max 10 µM
# Summary of the method: as §1
# [4] = compound: CC1=C(C(=CC=C1)Cl)NC(=O)C2=CN=C(S2)NC3=CC(=NC(=N3)C)N4CCN(CC4)CCO [Dasatinib]; settings: max 2 µM
# Summary of the method: as §1
# [5] = compound: Cn1cnc2c(F)c(Nc3ccc(Br)cc3Cl)c(C(=O)NOCCO)cc21 [Selumetinib]; settings: max 10 µM
# Summary of the method: as §1
# [6] = compound: CCN(CCO)CCCOc1ccc2c(Nc3cc(CC(=O)Nc4cccc(F)c4)[nH]n3)ncnc2c1 [AZD2811]; settings: max 1 µM
# Summary of the method: as §1
# [7] = compound: CN(C)CCCOc1ccc(-c2ccc3ncc4c(c3c2)n(C2CCOCC2)c(=O)n4C)cn1 [AZD0156]; settings: max 3 µM
# Summary of the method: as §1
# [8] = compound: COc1cccc(OCCCN)c1-c1cc(Nc2cnc(C#N)cn2)n[nH]1 [Prexasertib]; settings: max 1 µM
# Summary of the method: as §1
# [9] = compound: CN(CC[C@H](CSC1=CC=CC=C1)NC2=C(C=C(C=C2)S(=O)(=O)NC(=O)C3=CC=C(C=C3)N4CCC(CC4)[C@H](C5=CC=CC=C5C6=CC=C(C=C6)Cl)O)S(=O)(=O)C(F)(F)F)CCO [AZD4320]; settings: max 1 µM
# Summary of the method: as §1
# [10] = compound: C[C@@H](c1ccc2nccn2c1)n1nnc2ncc(-c3cnn(C)c3)nc21 [Savolitinib]; settings: max 1 µM
# Summary of the method: as §1
# [11] = compound: COc1cc([C@@H]2c3cc4c(cc3[C@@H](O[C@@H]3O[C@@H]5CO[C@@H](C)O[C@H]5[C@H](O)[C@H]3O)[C@H]3COC(=O)[C@H]23)OCO4)cc(OC)c1O [Etoposide]; settings: max 10 µM
# Summary of the method: as §1
# [12] = compound: COc1cc(Nc2ncc3c(n2)-c2ccc(Cl)cc2C(c2c(F)cccc2OC)=NC3)ccc1C(=O)O [Alisertib]; settings: max 10 µM
# Summary of the method: as §1
# [13] = compound: CC(=O)Nc1cccc(-n2c(=O)n(C3CC3)c(=O)c3c(Nc4ccc(I)cc4F)n(C)c(=O)c(C)c32)c1 [Trametinib]; settings: max 1 µM
# Summary of the method: as §1
# [14] = compound: C[C@@H]1COCCN1C2=NC(=NC(=C2)C3(CC3)[S@](=N)(=O)C)C4=C5C=CNC5=NC=C4 [AZD6738]; settings: max 10 µM
# Summary of the method: as §1
# [15] = compound: N#Cc1cnc(Nc2cc(NC[C@H]3CNCCO3)c(C(F)(F)F)cn2)cn1 [SRA737]; settings: max 10 µM
# Summary of the method: as §1
# [16] = compound: COc1cc2ncnc(Nc3ccc(F)c(Cl)c3)c2cc1OCCCN1CCOCC1 [Gefitinib]; settings: max 10 µM
# Summary of the method: as §1
# [17] = compound: CCc1c2c(nc3ccc(O)cc13)-c1cc3c(c(=O)n1C2)COC(=O)[C@]3(O)CC [SN-38]; settings: max 0.3 µM
# Summary of the method: as §1
# [18] = compound: Cc1c2c(nn1C)CSCc1cc(n(C)n1)CSc1cc(c3ccccc3c1)OCCCc1c(C(=O)O)n(C)c3c-2c(Cl)ccc13 [AZD5991]; settings: max 1 µM
# Summary of the method: as §1
# [19] = compound: CC1(C)CCC(CN2CCN(c3ccc(C(=O)NS(=O)(=O)c4ccc(NCC5CCOCC5)c([N+](=O)[O-])c4)c(Oc4cnc5[nH]ccc5c4)c3)CC2)=C(c2ccc(Cl)cc2)C1 [Venetoclax]; settings: max 1 µM
# Summary of the method: as §1
# [20] = compound: COc1nnc2ccc(N3CCC(c4ccc(OCCN5CCN(C)C(=O)[C@H]5C)cc4)CC3)nn12 [AZD5153]; settings: max 1 µM
# Summary of the method: as §1
# [21] = compound: CC1=CN2[C@@H](C1)C=NC3=CC(=C(C=C3C2=O)OC)OCCCCCOC4=C(C=C5C(=C4)N=C[C@@H]6CC(=CN6C5=O)C)OC [SG3199]; settings: max 0.001 µM
# Summary of the method: as §1
# [22] = compound: COc1cccc2c1C(=O)c1c(O)c3c(c(O)c1C2=O)C[C@@](O)(C(=O)CO)C[C@@H]3O[C@H]1C[C@H](N)[C@H](O)[C@H](C)O1 [Doxorubicin]; settings: max 1 µM
# Summary of the method: as §1
# [23] = compound: NC1(c2ccc(-c3nc4ccn5c(=O)[nH]nc5c4cc3-c3ccccc3)cc2)CCC1 [MK-2206]; settings: max 10 µM
# Summary of the method: as §1
# [24] = compound: CC(C)n1c(=O)n(C)c2cnc3cc(F)c(-c4ccc(OCCCN5CCCCC5)nc4)cc3c21 [AZD1390]; settings: max 0.3 µM
# Summary of the method: as §1
# [25] = compound: C[C@@H](Nc1cc(F)cc(F)c1)c1cc(C(=O)N(C)C)cc2c(=O)cc(N3CCOCC3)oc12 [AZD8186]; settings: max 10 µM
# Summary of the method: as §1
# [26] = compound: Cc1nc(-c2cn3c(n2)-c2ccc(-c4cnn(C(C)(C)C(N)=O)c4)cc2OCC3)n(C(C)C)n1 [Taselisib]; settings: max 10 µM
# Summary of the method: as §1
# [27] = compound: Nc1ccn([C@@H]2O[C@H](CO)[C@@H](O)C2(F)F)c(=O)n1 [Gemcitabine]; settings: max 0.3 µM
# Summary of the method: as §1
# [28] = compound: C1CC(C1)(C(=O)[O-])C(=O)[O-].N.N.[Pt+2] [Carboplatin]; settings: max 10 µM
# Summary of the method: as §1
# [29] = compound: O=c1[nH]cc(F)c(=O)[nH]1 [5-Fluorouracil]; settings: max 20 µM
# Summary of the method: as §1
# [30] = compound: Cc1cc2ncnn2cc1Nc1ncc2c(n1)n(C1CCOCC1)c(=O)n2C [AZD7648]; settings: max 10 µM
# Summary of the method: as §1
# [31] = compound: C=CCn1c(=O)c2cnc(Nc3ccc(N4CCN(C)CC4)cc3)nc2n1-c1cccc(C(C)(C)O)n1 [AZD1775]; settings: max 3 µM
# Summary of the method: as §1
# [32] = compound: O=C(Nc1ccc2[nH]nc(-c3ccncc3)c2c1)[C@@H]1CCN(CC(=O)N2CCN(c3ccc(-c4ncccn4)cc3)CC2)C1; settings: max 5 µM
# Summary of the method: as §1
# [33] = compound: O=C(c1cc(Cc2n[nH]c(=O)c3ccccc23)ccc1F)N1CCN(C(=O)C2CC2)CC1 [Olaparib]; settings: max 10 µM
# Summary of the method: as §1
# [34] = compound: C1CN(CCC1(C(=O)N[C@@H](CCO)C2=CC=C(C=C2)Cl)N)C3=NC=NC4=C3C=CN4 [AZD5363]; settings: max 10 µM
# Summary of the method: as §1
# [35] = compound: CS(=O)(=O)CCNCc1ccc(-c2ccc3ncnc(Nc4ccc(OCc5cccc(F)c5)c(Cl)c4)c3c2)o1 [Lapatinib]; settings: max 10 µM
# Summary of the method: as §1
Cell Line,"IC50, cell viability 72 h [1]","IC50, cell viability 72 h [2]","IC50, cell viability 72 h [3]","IC50, cell viability 72 h [4]","IC50, cell viability 72 h [5]","IC50, cell viability 72 h [6]","IC50, cell viability 72 h [7]","IC50, cell viability 72 h [8]","IC50, cell viability 72 h [9]","IC50, cell viability 72 h [10]","IC50, cell viability 72 h [11]","IC50, cell viability 72 h [12]","IC50, cell viability 72 h [13]","IC50, cell viability 72 h [14]","IC50, cell viability 72 h [15]","IC50, cell viability 72 h [16]","IC50, cell viability 72 h [17]","IC50, cell viability 72 h [18]","IC50, cell viability 72 h [19]","IC50, cell viability 72 h [20]","IC50, cell viability 72 h [21]","IC50, cell viability 72 h [22]","IC50, cell viability 72 h [23]","IC50, cell viability 72 h [24]","IC50, cell viability 72 h [25]","IC50, cell viability 72 h [26]","IC50, cell viability 72 h [27]","IC50, cell viability 72 h [28]","IC50, cell viability 72 h [29]","IC50, cell viability 72 h [30]","IC50, cell viability 72 h [31]","IC50, cell viability 72 h [32]","IC50, cell viability 72 h [33]","IC50, cell viability 72 h [34]","IC50, cell viability 72 h [35]"
MFH-ino (Other Solid Carcinomas),1270 nM,> 10000 nM,> 10000 nM,> 2000 nM,> 10000 nM,> 1000 nM,> 3000 nM,> 1000 nM,> 1000 nM,> 1000 nM,> 10000 nM,> 10000 nM,> 1000 nM,> 10000 nM,> 10000 nM,> 10000 nM,39.8 nM,> 1000 nM,> 1000 nM,> 1000 nM,> 1 nM,> 1000 nM,> 10000 nM,> 300 nM,> 10000 nM,> 10000 nM,71.7 nM,> 10000 nM,> 20000 nM,> 10000 nM,> 3000 nM,3670 nM,> 10000 nM,> 10000 nM,> 10000 nM
LS-513 (Colorectal Carcinoma),70 nM,4090 nM,4870 nM,> 2000 nM,419 nM,> 1000 nM,> 3000 nM,87 nM,> 1000 nM,> 1000 nM,> 10000 nM,1450 nM,3.66 nM,2760 nM,6760 nM,> 10000 nM,42.6 nM,> 1000 nM,> 1000 nM,334 nM,> 1 nM,> 1000 nM,2310 nM,> 300 nM,> 10000 nM,1300 nM,28.2 nM,> 10000 nM,7250 nM,> 10000 nM,789 nM,304 nM,> 10000 nM,> 10000 nM,4210 nM
SW1783 (Low Grade Glioma),407 nM,> 10000 nM,> 10000 nM,> 2000 nM,> 10000 nM,> 1000 nM,> 3000 nM,> 1000 nM,> 1000 nM,> 1000 nM,> 10000 nM,8540 nM,> 1000 nM,> 10000 nM,> 10000 nM,> 10000 nM,45.2 nM,> 1000 nM,> 1000 nM,> 1000 nM,> 1 nM,> 1000 nM,> 10000 nM,> 300 nM,8000 nM,5980 nM,121 nM,> 10000 nM,> 20000 nM,> 10000 nM,1410 nM,> 5000 nM,> 10000 nM,> 10000 nM,> 10000 nM
DSH1 (Bladder Carcinoma),146 nM,> 10000 nM,> 10000 nM,> 2000 nM,> 10000 nM,> 1000 nM,> 3000 nM,153 nM,> 1000 nM,> 1000 nM,7620 nM,> 10000 nM,615 nM,4620 nM,> 10000 nM,792 nM,26.8 nM,914 nM,> 1000 nM,242 nM,> 1 nM,306 nM,> 10000 nM,> 300 nM,> 10000 nM,2240 nM,6.55 nM,> 10000 nM,> 20000 nM,> 10000 nM,1920 nM,2060 nM,> 10000 nM,> 10000 nM,457 nM
MDA-MB-231 (Breast Carcinoma),456 nM,> 10000 nM,> 10000 nM,1900 nM,9410 nM,> 1000 nM,> 3000 nM,173 nM,> 1000 nM,> 1000 nM,> 10000 nM,> 10000 nM,204 nM,9530 nM,> 10000 nM,> 10000 nM,109 nM,> 1000 nM,> 1000 nM,374 nM,> 1 nM,592 nM,> 10000 nM,> 300 nM,> 10000 nM,> 10000 nM,184 nM,> 10000 nM,> 20000 nM,> 10000 nM,> 3000 nM,1910 nM,> 10000 nM,> 10000 nM,> 10000 nM
